Here are results for 2 molecules from patent US6455567B1, “Method of treatment” (Pfizer Inc., priority 1994, dated 2002).

Assay [1] has as its system oedema in the rat hind paw. To be noted: intravenous, saphenous nerve stimulation; cited from earlier work.
Assay [2] concerns vasodilation in the rat hind paw. Description: Vasodilation (skin blood flow) in the rat hind paw after saphenous nerve stimulation, method of Kajekar et al. To be noted: intravenous. Type of assay: in vivo. On the procedure:
The test compound is administered intravenously at different doses and the results are recorded as the change in the increase in skin blood flow.

Assay [3] has as its system neurogenic inflammation in dura mater. To be noted: in vivo; cited from earlier work.

With `CNS(=O)(=O)Cc1ccc2[nH]cc(C[C@H]3CCCN3C)c2c1` [CP-122,288, (R)-5-(methylaminosulphonylmethyl)-3-(N-methylpyrrolidin-2-ylmethyl)-1H-indole], in assay [1], the “lowest administered amount with significant effect on ratio of plasma extravasation in the stimulated/unstimulated hind paw” value was 2e-14 mol/kg. The “lowest dose with significant effect on the increase in skin blood flow (vasodilation)” value in assay [2] amounted to 2e-12 mol/kg. Also, the “potency against neurogenic inflammation in dura mater” value in assay [3] is on record as “exhibit potency against neurogenic inflammation”.
For the molecule `CNS(=O)(=O)Cc1ccc2[nH]cc(C[C@H]3CCCN3)c2c1` [CP-122,638, (R)-5-(methylaminosulphonylmethyl)-3-(pyrrolidin-2-ylmethyl)-1H-indole], the “potency against neurogenic inflammation in dura mater” value in assay [3] is recorded as “exhibit potency against neurogenic inflammation”.
